Data on nine compounds can be found in US9656990B2, “Cathepsin cysteine protease inhibitors” (Merck Sharp & Dohme Corp., priority 2014, dated 2017).

For one assay, the target named is human cathepsin K (UniProt P43236, Y175D/V274L, species not given). Kind of assay: Cathepsin K Assay. It is filed as biochemical. As to conditions: IP from dose response curve; Z-Leu-Arg-AMC substrate, pH 5.5; read-out: hrbCat K (IP (nM)).
Another assay deals with T1, human cathepsin F (Homo sapiens, UniProt Q9UBX1).
T1 sequence (Q9UBX1 271-484): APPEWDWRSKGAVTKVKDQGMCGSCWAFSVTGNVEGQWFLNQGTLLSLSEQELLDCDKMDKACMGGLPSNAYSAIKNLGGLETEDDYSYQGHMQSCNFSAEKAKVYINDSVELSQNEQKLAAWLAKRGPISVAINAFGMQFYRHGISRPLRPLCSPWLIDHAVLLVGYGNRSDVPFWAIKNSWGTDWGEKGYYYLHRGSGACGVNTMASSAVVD
Kind of assay: Cathepsin F Assay. It is filed as biochemical. As to conditions: IP from dose response curve; Z-Phe-Arg-AMC substrate, pH 5.5; read-out: hCat F (IP (nM)). In outline: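 Human cathepsin F (10 nM) preincubated 15 min at room temperature with compounds in 50 mM MES pH 5.5, 2.5 mM EDTA, 2.5 mM DTT, 10% DMSO. Z-Phe-Arg-AMC (8 μM) added; AMC release read by fluorescence (Ex 360/Em 460 nm) over 20 min, inhibition fit to dose-response model.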

Turning to `N#CC1(NC(=O)[C@@H]2CCCC[C@H]2c2nn(-c3ccc(F)cc3)cc2-c2ccc(N3CCS(=O)(=NCC(F)(F)F)CC3)cc2)CC1` [Example 141, (1R,2R)-N-(1-cyanocyclopropyl)-2-(1-(4-fluorophenyl)-4-(4-(1-oxido-1-((2,2,2-trifluoroethyl)imino)thio-morpholino)phenyl)-1H-pyrazol-3-yl)cyclohexanecarboxamide], the IC50 amounted to 2.1 nM on human cathepsin K and 816 nM on human cathepsin F.
Consider `N#CC1(NC(=O)[C@@H]2CCCC[C@H]2c2nn(-c3ccccn3)cc2-c2ccc(N3CCS(=O)(=O)CC3)cc2)CC1` [Example 142, (1R,2R)-N-(1-cyanocyclopropyl)-2-(4-(4-(1,1-dioxidothiomorpholino)phen-yl)-1-(pyridin-2-yl)-1H-pyrazol-3-yl)cyclohexanecarboxamide], for which the IC50 at human cathepsin K turned out to be 0.52 nM; on human cathepsin F it was 232 nM.
For `N#CC1(NC(=O)[C@@H]2CCCC[C@H]2c2nn(-c3ccc(C(F)(F)F)cn3)cc2-c2ccc(N3CCS(=O)(=O)CC3)cc2)CC1` [Example 143, (1R,2R)-N-(1-cyanocyclopropyl)-2-(4-(4-(1,1-dioxidothiomorpholino)phen-yl)-1-(5-(trifluoromethyl)pyridin-2-yl)-1H-pyrazol-3-yl)cyclohexanecarboxamide], in that order: 1.17 nM and 395 nM.
On to `N#CC1(NC(=O)[C@@H]2CCCC[C@H]2c2nn(-c3ncccc3F)cc2-c2ccc(N3CCS(=O)(=O)CC3)cc2)CC1` [Example 144, (1R,2R)-N-(1-cyanocyclopropyl)-2-(4-(4-(1,1-dioxidothiomorpholino)phen-yl)-1-(3-fluoropyridin-2-yl)-1H-pyrazol-3-yl)cyclohexanecarboxamide], for which the IC50 amounted to 5.59 nM on human cathepsin K and 3060 nM at human cathepsin F.
The matching figures for `N#CC1(NC(=O)[C@@H]2CCCC[C@H]2c2nn(-c3ccc(F)cn3)cc2-c2ccc(N3CCS(=O)(=O)CC3)cc2)CC1` [Example 145, (1R,2R)-N-(1-cyanocyclopropyl)-2-(4-(4-(1,1-dioxidothiomorpholino)phen-yl)-1-(5-fluoropyridin-2-yl)-1H-pyrazol-3-yl)cyclohexanecarboxamide]: 1.24 nM and 481 nM.
The matching figures for `N#CC1(NC(=O)[C@@H]2CCCC[C@H]2c2nn(-c3ccc(Cl)cn3)cc2-c2ccc(N3CCS(=O)(=O)CC3)cc2)CC1` [Example 146, (1R,2R)-2-(1-(5-chloropyridin-2-yl)-4-(4-(1,1-dioxidothiomorpholino)phen-yl)-1H-pyrazol-3-yl)-N-(1-cyanocyclopropyl)cyclohex-anecarboxamide]: 1.15 nM and 272 nM.
Turning to `N#CC1(NC(=O)[C@@H]2CCCC[C@H]2c2nn(-c3ncc(F)cc3Cl)cc2-c2ccc(N3CCS(=O)(=O)CC3)cc2)CC1` [Example 147, (1R,2R)-2-(1-(3-chloro-5-fluoropyridin-2-yl)-4-(4-(1,1-dioxidothiomorpholino)phen-yl)-1H-pyrazol-3-yl)-N-(1-cyanocyclopropyl)cyclohex-anecarboxamide], the IC50 was found to be 3.26 nM at human cathepsin K and 1190 nM at human cathepsin F.
`N#CC1(NC(=O)[C@@H]2CCCC[C@H]2c2nn(-c3ncc(F)cc3F)cc2-c2ccc(N3CCS(=O)(=O)CC3)cc2)CC1` [Example 148, (1R,2R)-N-(1-cyanocyclopropyl)-2-(1-(3,5-difluoropyridin-2-yl)-4-(4-(1,1-dioxidothiomorpholino)phen-yl)-1H-pyrazol-3-yl)cyclohexanecarboxamide]: the IC50 on human cathepsin K came to 1.01 nM; on human cathepsin F it was 502 nM.
The matching figures for `CN=S1(=O)CCN(c2ccc(-c3cn(-c4ccc(F)cn4)nc3[C@@H]3CCCC[C@H]3C(=O)NC3(C#N)CC3)cc2)CC1` [Example 156, (1R,2R)-N-(1-cyanocyclopropyl)-2-(1-(5-fluoropyridin-2-yl)-4-(4-(1-(methylimino)-1-oxidothiomorpholino)phenyl)-1H-pyrazol-3-yl)cyclohexanecarboxamide]: 1.47 nM and 945 nM.
